From patent publication US7763287B2, “Extract of Cercis chinensis having anti-oxidant activity and anti-aging activity, and cosmetical composition containing the extract for anti-oxidation, skin-aging protection and wrinkle improvement” (Hankook Pharm. Co., Inc., priority 2002, dated 2010)

How the values were obtained:
[1] = DPPH radical scavenging activity; type: biochemical; conditions: for DPPH radical scavenging activity IC50: Table 3
Procedure: In order to extract an effective ingredient having an anti-oxidant activity from Cercis chinensis, an experiment was performed following the procedure represented in a schematic diagram of FIG. 1. Particularly, 1 kg of leaves and stems of Cercis chinensis, dried in shadow, were grinded to powder using a pulverizer, which was extracted by ethanol (EtOH) at room temperature twice at intervals of two weeks. For the extraction, ethanol solutions were prepared by adding ethanol gradually, 10% at a time, from 0% to 100%. The prepared ethanol solutions were used for the extraction. […] But, it looses absorbance when being scavenged. Based on that point, an anti-oxidant activity can be measured using DPPH. […] Then, each solution was distributed into a 96 well plate by 10 μl each, into which 190 μl of DPPH(Sigma, St. Louis, Mo, USA) solution whose ethanol concentration was 2×10^−4 M/ml was added. The plate was just left at room temperature for 30 minutes. Finally, OD517 was measured at 517 nm. For a control, DMSO was added instead of the sample, and changes of optical density were investigated. […] DDPH Radical Scavenging Activity (%)=(Acontrol−Asample)/(Acontrol)×100 <Mathematica Formula 1>
Acontrol: Optical density of control group (sample was not added),
Asample: Optical density of experimental group (sample was added).
In order to identify a fraction having an anti oxidant activity among hexane Fr, EtOAc Fr and BuOH Fr obtained above, a DPPH radical scavenging activity was measured using each extract of each fraction following the method used above. At this time, vitamin E, known to have high DPPH radical scavenging activity, was used as a comparing group.
At this time, BHA (tert-butyl-4 hydroxyanisole) and α-tocopherol, synthetic anti-oxidant agents, were used as positive controls.

[2] = Hydroxyl radical scavenging activity (deoxyribose/TBA, method of Halliwell); type: biochemical; conditions: for Hydroxyl radical scavenging activity (%): 10 μg of sample, total volume 1 ml
Procedure: Hydroxyl radical (HO.) is generated by the reaction of a metal ion or a superoxide radical. Owing to its strong reactivity, hydroxyl radical causes oxidative damages to DNA, protein and lipid in vivo. Nitric oxide (NO.) is reacted with a superoxide radical to generate a peroxy nitrite (ONOO—), also having strong reactivity. […] Particularly, each compound was mixed with 10 μg of a sample dissolved in DMSO, phosphate buffer (20 mM, pH 7.4) 5.6 mM deoxyribose, 0.1 mM FeCl3, 1 mM H2O2 and 0.1 mM ascorbic acid, making total volume 1 ml, which was then reacted at 37° C. for 60 minutes. 250 μl of 20% TCA and 250 μl of 1% TBA solution (dissolved in 50 mM NaOH) were added to the reaction solution, followed by thermal reaction at 95° C. for 5 minutes. After completing the reaction, OD532 was measured. Hydroxyl radical scavenging activity was calculated by the below
<Mathematical Formula 3>. BHA and α-tocopherol were used for a positive control. Hydroxyl Radical Scavenging Activity (%)=(Acontrol−Asample)/(Acontrol−Ablank)×100 <Mathematical Formula 3>
Acontrol: Optical density of control group well (sample was not added),
Asample: Optical density of experimental group well (sample was added),
Ablank: Optical density of well not added with sample, TCA and TBA

[3] = Nitric oxide scavenging activity; type: biochemical; design: Nitric oxide scavenging activity (%): concentration or dose not given beside the values
[4] = Superoxide radical scavenging activity (xanthine/xanthine oxidase, NBT); type: biochemical; conditions: Table 6
Procedure: Superoxide radical (O^2−) itself has a little reactivity, but is easily changed into H2O2 that generates hydroxyl radical having strong reactivity or is reacted with nitric oxide (NO.) to generate peroxy nitrite (ONOO^−) having strong reactivity, too. Thus, it might be a reason for oxidation of SH-group, nitration of protein tyrosine, lipid peroxidation and DNA damage. […] Basically, measurement of superoxide radical scavenging activity was performed by investigating the activity of superoxide dismutase (SOD), an enzyme scavenging superoxide by dismutation of the same. In the present invention, an activity of a sample to inhibit superoxide production by the enzyme reaction of xanthine/xanthine oxidase and its another activity to inhibit reaction (NBT+20^2−→NBTH2+2O2) generating formazan by reduction of nitro blue tetrazolium (referred as ‘NBT’ hereinafter) were measured. Particularly, wells of a 96-well plate were supplemented with 50 μl of 4 mM xanthine (Sigma), 50 μl of […] NBT (Sigma), 50 μl of 50 mM phosphate buffer (pH 7.8, 1 mM EDTA) and 10 μl of each sample, into which 40 μl of xanthine oxidase was added to induce a reaction. After the reaction was completed, each reaction solution was collected as scheduled, and OD550 was measured with an ELISA reader. […] Superoxide Radical Scavenging Activity (%)=(Acontrol−Asample)/(Acontrol−Ablank)×100 <Mathematical Formula 4> […]

[5] = tested on: HEK-N/F cells; experiment: Protection of cells from oxidative damage induced by t-butylhydroperoxide; type: cell-based, human; conditions: 1.5 mM t-butylhydroperoxide 3 hours; for TBARS (pmol/mg protein): compound 50.0 µg/ml
Procedure: t-butylhydroperoxide is metabolized into a free radical intermediate as it comes in a cell, so that it causes lipid peroxidation, resulting in cell damage. This phenomenon is similar to that caused by oxidataive stress accumulated in cells and tissues. […] HEK-N/F, an epidermal cell line of a newborn baby, was treated with 1.5 mM of t-butylhydroxyperoxide for 3 hours.

[6] = tested on: rat brain homogenates; experiment: Lipid peroxidation inhibitory activity (Fe2+/ascorbic acid, TBA method); conditions: Table 4

Molecule | DPPH radical scavenging activity IC50 [1] [µg/mL] | Lipid Peroxidation Inhibitory Activity IC50 [6] [µg/mL] | DPPH radical scavenging IC50 ([1]; fractions of the 60% ethanol extract) [µg/mL] | Hydroxyl radical scavenging activity (%) [2] [%] | Nitric oxide scavenging activity (%) [3] [%] | Superoxide radical scavenging activity IC50 [4] [µg/mL] | Cell survival rate (%) [5] [%] | TBARS (pmol/mg protein) [5] [pmol/mg protein] | Hydroxyl radical scavenging activity (in words) [2]
COc1cc(C2c3c(cc(OC)c(O)c3OC)CC(CO)C2CO[C@@H]2O[C@H](CO)[C@@H](O)[C@H](O)[C@H]2O)cc(OC)c1O (single isomer, unassigned; (+)) [Chemical Formula 20, (+)-lyoniresiol 3a-O-β-D-glucopyranoside] | 42.6 ± 3.1 | 39.10 ± 3.11 |  | 8.1 | 0.8 ± 0.8 | >100 | 12.9 ± 2.1 | 7635.7 ± 631.2 | 
COc1cc(C2c3c(cc(OC)c(O)c3OC)CC(CO)C2CO[C@@H]2OC[C@@H](O)[C@H](O)[C@H]2O)cc(OC)c1O (single isomer, unassigned; (-)) [Chemical Formula 19, (−)-lyoniresinol 3a-O-β-D-xylopyranoside] | 45.7 ± 4.0 | 37.42 ± 2.06 |  | 7.3 | 0.8 ± 0.6 | >100 | 13.5 ± 2.0 | 5981.1 ± 412.6 | 
O=C(O)/C=C/c1ccc(O)c(O)c1 [Caffeic acid, caffeic acid, reference compound] |  |  |  |  |  | 11.0 ± 1.8 |  |  | 
O=C1C[C@@H](c2ccc(O)cc2)Oc2cc(O)ccc21 [Chemical Formula 3, liquiritigenin] | >50 | 6.05 ± 0.99 |  | 3.2 |  | 59.2 ± 3.8 | 12.1 ± 1.0 | 8255.1 ± 576.4 | 
C[C@@H]1O[C@@H](Oc2c(-c3ccc(O)cc3)oc3cc(O)cc(O)c3c2=O)[C@H](O)[C@H](O)[C@H]1O [Chemical Formula 10, afzelin] |  |  |  |  |  |  | 16.8 ± 1.3 | 3295.1 ± 304.5 | 
C[C@@H]1O[C@@H](Oc2c(-c3ccc(O)c(O)c3)oc3cc(O)cc(O)c3c2=O)[C@H](O)[C@H](O)[C@H]1O [Chemical Formula 11, quercitrin] |  |  |  |  |  |  |  | 2217.2 ± 200.3 | 
CC1OC(Oc2c(-c3cc(O)c(O)c(O)c3)oc3cc(O)cc(O)c3c2=O)C(OC(=O)c2cc(O)c(O)c(O)c2)C(O)C1O [Chemical Formula 13, myricetin-3-O-(2″-O-galloyl)-α-L-rhamnopyranoside] | 8.6 ± 0.7 | 4.73 ± 0.41 |  | 45.4 | 23.0 ± 0.6 | 13.2 ± 2.5 | 45.1 ± 3.6 | 1019.8 ± 154.0 | remarkably higher hydroxyl radical scavenging activities
COc1cc(-c2oc3cc(O)cc(O)c3c(=O)c2O[C@@H]2O[C@H](CO[C@@H]3O[C@@H](C)[C@H](O)[C@@H](O)[C@H]3O)[C@@H](O)[C@H](O)[C@H]2OC(=O)c2cc(O)c(O)c(O)c2)cc(OC)c1O [Chemical Formula 15, syringetin-3-O-(2″-O-galloyl)-rutinoside] | 29.2 ± 1.8 | 10.10 ± 1.02 |  | 16.4 | 14.1 ± 1.4 | 37.1 ± 2.0 |  |  | 

Further lines, with some results ahead:

DPPH radical scavenging activity IC50 [1] [µg/mL] | Lipid Peroxidation Inhibitory Activity IC50 [6] [µg/mL] | DPPH radical scavenging IC50 ([1]; fractions of the 60% ethanol extract) [µg/mL] | Molecule | Hydroxyl radical scavenging activity (%) [2] [%] | Nitric oxide scavenging activity (%) [3] [%] | Superoxide radical scavenging activity IC50 [4] [µg/mL] | Cell survival rate (%) [5] [%] | TBARS (pmol/mg protein) [5] [pmol/mg protein] | Hydroxyl radical scavenging activity (in words) [2]
 | 3.33 ± 0.50 |  | O=C(/C=C/c1ccc(O)cc1)c1ccc(O)cc1O [Chemical Formula 1, isoliquiritigenin] |  |  |  | 13.9 ± 12.6 | 5118.1 ± 410.5 | 
>50 | 12.81 ± 1.86 |  | COc1ccc(/C=C/C(=O)c2ccc(O)cc2O)cc1 [Chemical Formula 2, 2′,4′-dihydroxy-4-methoxychalcone] | 4.5 |  | 49.8 ± 3.1 | 16.2 ± 3.2 | 3449.7 ± 305.8 | 
 | 0.89 ± 0.10 |  | Oc1ccc(C=Cc2cc(O)cc(O)c2)cc1 [Chemical Formula 4, resveratrol] |  |  |  | 18.1 ± 1.6 | 2792.4 ± 259.1 | 
5.1 ± 0.4 | 6.80 ± 0.63 |  | O=C(O)c1cc(O)c(O)c(O)c1 [Chemical Formula 6, gallic acid] | 33.6 | 25.0 ± 2.0 |  | 41.5±3.1 | 1245.7 ± 112.4 | 
5.3 ± 0.3 | 7.05 ± 0.87 |  | COC(=O)c1cc(O)c(O)c(O)c1 [Chemical Formula 7, methyl gallate] | 43.8 | 32.6 ± 2.8 | 16.5 ± 1.4 | 43.0±5.6 | 1024.4 ± 91.9 | remarkably higher hydroxyl radical scavenging activities
7.0 ± 1.0 | 7.01 ± 0.62 |  | CCOC(=O)c1cc(O)c(O)c(O)c1 [Chemical Formula 8, ethyl gallate] | 44.0 | 33.4 ± 2.1 | 15.8 ± 1.6 | 43.1±4.1 | 1115.6 ± 96.2 | remarkably higher hydroxyl radical scavenging activities
25.4 ± 0.9 | 6.61 ± 0.95 |  | Cc1c(C)c2c(c(C)c1O)CC[C@@](C)(CCC[C@H](C)CCC[C@H](C)CCCC(C)C)O2 [α-tocopherol, reference compound] | 0.8 |  |  |  |  | 
15.3 ± 0.6 | 0.11 ± 0.02 |  | tert-butyl-4-hydroxyanisole [BHA, reference compound] | 15.6 |  | 48.8 ± 2.5 |  |  | 
 |  | 24.9 | vitamin E [reference compound] |  |  |  |  |  | 
